Measurements: patent US11000033B2, “Ketone or oxime compound, and herbicide” (NISSAN CHEMICAL CORPORATION, priority 2014, dated 2021)

Assays:
Format in all cases: in vivo
[1] = tested on: Echinochloa oryzacola Vasing.; test: Test Example 1: herbicidal activity, application before weed generation in submerged conditions (symbol A); conditions: application herbicide amount 320 g/ha
Outline: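 Flooded alluvial soil (4 cm water) was mixed-sown with the three weed species, and 2.5-leaf rice seedlings were transplanted. On sowing day, a water-diluted emulsion at a predetermined rate was applied to the water surface. After 3 weeks in a 25–30 °C greenhouse, effect was scored 0–5.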

[2] = tested on: Echinochloa oryzacola Vasing.; test: Test Example 2: herbicidal activity, application during weed generation in submerged conditions (symbol A); conditions: Table 23; application herbicide amount 320 g/ha; grade 0-5 by criteria of Test Example 1
Outline: (§1)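 Treatment timing was the one- to two-leaf stage, with diluted emulsifiable compound dropped onto the paddy water (depth 4 cm) over alluvial soil. All three species grew from a mixed sowing in a 25° C. to 30° C. greenhouse. Injury was judged by eye 3 weeks on.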

Monochoria vaginalis = test: Test Example 2: herbicidal activity, application during weed generation in submerged conditions (symbol C); conditions: Table 23; application herbicide amount 320 g/ha; grade 0-5 by criteria of Test Example 1
Outline: as §1

Cyperus difformis = test: Test Example 3: herbicidal effect by foliage application, Wagner pot (symbol E); conditions: application herbicide amount 320 g/ha
Outline: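 The compound, formulated as an emulsion and diluted with water to a predetermined rate, is applied uniformly to leaves of two-week-old seedlings growing in submerged alluvial soil at 25–30 °C. Rice is included. Each plant is assessed 3 weeks later using defined criteria.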

[3] = tested on: directly sowed rice plant; test: Test Example 3: effect on crop by foliage application, Wagner pot (symbol b); conditions: application herbicide amount 320 g/ha
Outline: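 Wagner pot (1/10000 are), alluvial soil, submerged 0.1–0.5 cm; sown E. crus-galli var. crus-galli, L. chinensis, C. difformis, rice; greenhouse 25–30 °C.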

[4] = tested on: Echinochloa crus-galli var. crus-galli; test: Test Example 4: herbicidal effect by soil treatment (symbol H)
Outline: (§2)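 Seeds were sown in sterilized diluvial soil, covered with about 1.5 cm of soil, and the soil surface was sprayed with a water-diluted emulsion of the compound at a predetermined rate. Plants grew in a greenhouse at 25° C. to 30° C.; effects were scored visually 3 weeks after application.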

Abutilon theophrasti = test: Test Example 4: herbicidal effect by soil treatment (symbol M)
Outline: as §2

Stellaria media [5] = test: Test Example 4: herbicidal effect by soil treatment (symbol P)
Outline: as §2

Digitaria ciliaris = test: Test Example 5: herbicidal effect by foliage application, plastic box (symbol F); conditions: 320 g/ha, 3 weeks after application
Outline: (§3)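 Visual herbicidal score, taken three weeks post-application, of seedlings sprayed on the foliage with water-diluted emulsion at a predetermined amount; plants were 14 days old, greenhouse-raised at 25° C. to 30° C.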

Avena fatua = test: Test Example 5: herbicidal effect by foliage application, plastic box (symbol I); conditions: 320 g/ha, 3 weeks after application
Outline: as §3

Apera spica-venti = test: Test Example 5: herbicidal effect by foliage application, plastic box (symbol L); conditions: 320 g/ha, 3 weeks after application
Outline: as §3

Stellaria media [6] = test: Test Example 5: herbicidal effect by foliage application, plastic box (symbol P); conditions: 320 g/ha, 3 weeks after application
Outline: as §3

rice plant = test: Test Example 5: effect on crop by foliage application, plastic box (symbol b); conditions: 320 g/ha, 3 weeks after application
Outline: (§4)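 Plants were raised from seed in a greenhouse (25° C. to 30° C.) after sowing in a plastic box of sterilized diluvial soil.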

rapeseed = test: Test Example 5: effect on crop by foliage application, plastic box (symbol g); conditions: 320 g/ha, 3 weeks after application
Outline: as §4

[7] = application herbicide amount 320 g/ha

Compound	Herbicidal effect grade, A: Echinochloa oryzacola Vasing. [1]	Herbicidal effect grade, A: Echinochloa oryzacola Vasing. [2]	Herbicidal effect grade, C: Monochoria vaginalis (Monochoria vaginalis)	herbicidal effect on E, grade 0-5 (Cyperus difformis)	effect on crop b (directly sowed rice plant), grade 0-5 [3]	H: Echinochloa crus-galli var. crus-galli, herbicidal effect grade [4, 7]	M: Abutilon theophrasti, herbicidal effect grade (Abutilon theophrasti; [7])	P: Stellaria media, herbicidal effect grade (Stellaria media [5]; [7])	F: Digitaria ciliaris, herbicidal effect grade (Digitaria ciliaris)	I: Avena fatua, herbicidal effect grade (Avena fatua)	L: Apera spica-venti, herbicidal effect grade (Apera spica-venti)	P: Stellaria media, herbicidal effect grade (Stellaria media [6])	b: directly sowed rice plant, effect on crop grade (rice plant)	g: rapeseed, effect on crop grade (rapeseed)	H: Echinochloa crus-galli var. crus-galli, herbicidal effect grade ([4]; 320 g/ha)	M: Abutilon theophrasti, herbicidal effect grade (Abutilon theophrasti; 320 g/ha)	P: Stellaria media, herbicidal effect grade (Stellaria media [5]; 320 g/ha)
CON=C(C)CC1CC(O)=C(c2c(C)cc(C)cc2OC)C1=O (stereo not shown) [6-037, 3-hydroxy-2-(2-methoxy-4,6-dimethylphenyl)-5-{2-(methoxyimino)propyl}cyclopent-2-enone]	5 (Herbicidal ratio of 90% or more (almost completely withered))	5 (Herbicidal ratio of 90% or more (almost completely withered))	4 (Herbicidal ratio of 70% or higher and lower than 90%)	5 (Herbicidal ratio of 90% or more (almost completely withered))	5 (Herbicidal ratio of 90% or more (almost completely withered))	5 (Herbicidal ratio of 90% or more (almost completely withered))	5 (Herbicidal ratio of 90% or more (almost completely withered))	0 (Herbicidal ratio of 5% or lower (almost no effect))	5 (Herbicidal ratio of 90% or more (almost completely withered))	5 (Herbicidal ratio of 90% or more (almost completely withered))	5 (Herbicidal ratio of 90% or more (almost completely withered))	4 (Herbicidal ratio of 70% or higher and lower than 90%)	5 (Herbicidal ratio of 90% or more (almost completely withered))	5 (Herbicidal ratio of 90% or more (almost completely withered))	–	–	–
Cc1cc(C)c(C2=C(O)CC(CC(=O)c3ccc(F)cc3)C2=O)c(C)c1 (stereo not shown) [2-032]	4 (Herbicidal ratio of 70% or higher and lower than 90%)	4 (Herbicidal ratio of 70% or higher and lower than 90%)	0 (Herbicidal ratio of 5% or lower (almost no effect))	4 (Herbicidal ratio of 70% or higher and lower than 90%)	5 (Herbicidal ratio of 90% or more (almost completely withered))	4 (Herbicidal ratio of 70% or higher and lower than 90%)	0 (Herbicidal ratio of 5% or lower (almost no effect))	0 (Herbicidal ratio of 5% or lower (almost no effect))	2 (Herbicidal ratio of 20% or higher and lower than 40%)	3 (Herbicidal ratio of 40% or higher and lower than 70%)	5 (Herbicidal ratio of 90% or more (almost completely withered))	0 (Herbicidal ratio of 5% or lower (almost no effect))	5 (Herbicidal ratio of 90% or more (almost completely withered))	4 (Herbicidal ratio of 70% or higher and lower than 90%)	–	–	–
C=CC(=O)CC1CC(O)=C(c2c(C)cc(C)cc2C)C1=O (stereo not shown) [2-031]	4 (Herbicidal ratio of 70% or higher and lower than 90%)	4 (Herbicidal ratio of 70% or higher and lower than 90%)	0 (Herbicidal ratio of 5% or lower (almost no effect))	5 (Herbicidal ratio of 90% or more (almost completely withered))	5 (Herbicidal ratio of 90% or more (almost completely withered))	5 (Herbicidal ratio of 90% or more (almost completely withered))	1 (Herbicidal ratio of 5% or higher and lower than 20%)	0 (Herbicidal ratio of 5% or lower (almost no effect))	5 (Herbicidal ratio of 90% or more (almost completely withered))	5 (Herbicidal ratio of 90% or more (almost completely withered))	4 (Herbicidal ratio of 70% or higher and lower than 90%)	0 (Herbicidal ratio of 5% or lower (almost no effect))	5 (Herbicidal ratio of 90% or more (almost completely withered))	4 (Herbicidal ratio of 70% or higher and lower than 90%)	–	–	–
CC(=O)C(C(C)=O)C1CC(O)=C(c2c(C)cc(C)cc2C)C1=O (stereo not shown) [2-002]	0 (Herbicidal ratio of 5% or lower (almost no effect))	0 (Herbicidal ratio of 5% or lower (almost no effect))	0 (Herbicidal ratio of 5% or lower (almost no effect))	0 (Herbicidal ratio of 5% or lower (almost no effect))	0 (Herbicidal ratio of 5% or lower (almost no effect))	–	–	–	4 (Herbicidal ratio of 70% or higher and lower than 90%)	1 (Herbicidal ratio of 5% or higher and lower than 20%)	2 (Herbicidal ratio of 20% or higher and lower than 40%)	2 (Herbicidal ratio of 20% or higher and lower than 40%)	4 (Herbicidal ratio of 70% or higher and lower than 90%)	3 (Herbicidal ratio of 40% or higher and lower than 70%)	0 (Herbicidal ratio of 5% or lower (almost no effect))	0 (Herbicidal ratio of 5% or lower (almost no effect))	0 (Herbicidal ratio of 5% or lower (almost no effect))
CON=C(C)CC1CC(O)=C(c2c(C)cc(C#CCO)cc2C)C1=O (mixture of isomers) [6-025]	2 (Herbicidal ratio of 20% or higher and lower than 40%)	2 (Herbicidal ratio of 20% or higher and lower than 40%)	0 (Herbicidal ratio of 5% or lower (almost no effect))	4 (Herbicidal ratio of 70% or higher and lower than 90%)	5 (Herbicidal ratio of 90% or more (almost completely withered))	0 (Herbicidal ratio of 5% or lower (almost no effect))	0 (Herbicidal ratio of 5% or lower (almost no effect))	0 (Herbicidal ratio of 5% or lower (almost no effect))	4 (Herbicidal ratio of 70% or higher and lower than 90%)	5 (Herbicidal ratio of 90% or more (almost completely withered))	5 (Herbicidal ratio of 90% or more (almost completely withered))	0 (Herbicidal ratio of 5% or lower (almost no effect))	5 (Herbicidal ratio of 90% or more (almost completely withered))	3 (Herbicidal ratio of 40% or higher and lower than 70%)	–	–	–
